Series [1] deals with human hepatoma G2 cells. The series can be described thus: Cytotoxicity assay (XTT colorimetric), Hep G2. As to conditions: 48 h of drug exposure. The series is classed as cell-based. (In general: Tetrazolium assays rely on reduction of a dye to a coloured formazan, in cell work by metabolically active cells.)
Series [2] deals with rat glioma C6 cells. The series can be described thus: Cytotoxicity assay (XTT colorimetric), C6 cells. The series is classed as cell-based. As to conditions: 48 h of drug exposure.
Series [3] relates to hepatitis B virus transfected hepatoma cell lines, HepG 2.2.15 cells. Description: Cytotoxicity assay, 2.2.15 cells. In kind it is cell-based, human. As to conditions: 48 h of drug exposure.
For series [4], the system named is transcriptional activity of hTERT. Description: SEAP reporter assay of hTERT expression, PhTERT-SEAP (hTERT-BJ1). The series is classed as cell-based, human. As to conditions: PhTERT-SEAP (hTERT-BJ1). The essentials:
(§1)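 Drug exposure: varying amounts, 24 h, following 24 h culture at 37° C and fresh medium. Media heat-inactivated (65° C, 10 min) to remove endogenous phosphatases, then combined 1:1 with diethanolamine/MgCl2/homoarginine buffer and 12 mM p-nitrophenyl phosphate; A405 slope recorded.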
For orientation: In a reporter assay the amount or activity of a reporter protein is the signal.

The test system is the same in series [5]. Description: SEAP reporter assay of hTERT expression, PhTERT-SEAP (H1299). The series is classed as cell-based, human. As to conditions: PhTERT-SEAP(hTERT-H1299). The essentials: as §1
The test system of series [6] is non-small-cell lung cancer cells H1299. Description: MTT relative viability, PhTERT-SEAP (H1299) cells. As to conditions: PhTERT-SEAP(hTERT-H1299).
Series [7] has as its system hTERT-BJ1 cells. Description: MTT relative viability, PhTERT-SEAP (hTERT-BJ1) cells. As to conditions: PhTERT-SEAP (hTERT-BJ1).
Method: The tetrazolium reagent (MTT; 3-(4,5-di-methylthiazol)-2,5-diphenyl tetrazolium bromide, USB) was designed to yield a colored formazan upon metabolic reduction by viable cells. Approximately […] cells were plated onto each well of a 96-well plate and incubated in 5% CO2 at 37° C. for 24 h. To assess the in vitro cytotoxicity, each compound was dissolved in DMSO and prepared immediately before the experiments and was diluted into the complete medium before addition to cell cultures. Test compounds were then added to the culture medium for designated various concentrations. After 48 h, an amount of 25 μL of MTT was added to each well, and the samples were incubated at 37° C. for 4 h. A 100 μL solution of lysis buffer containing 20% SDS and 50% N,N-dimethylformamide was added to each well and incubated at 37° C. for another 16 h. The absorbency at 550 nm was measured using an ELISA reader.
Non small lung cancer cells H1299 (telomerase positive) were grown in RPMI 1640 media supplemented with 10% fetal bovine serum, 100 units/mL penicillin and 100 mg/mL streptomycin in a humidified atmosphere with 5% CO2 at 37° C. The hTERT immortalized hTERT-BJ1 (BD Biosciences Clontech)^39 were grown in DMEM media supplemented with 10% fetal calf serum, 100 units/mL penicillin and 100 mg/mL streptomycin, 1 mM sodium pyruvate, and 4 mM I-arginine in a humidified atmosphere with 5% CO2 at 37° C. Culture media were changed every 3 days. […] The stable clones derived from H1299 or hTERT-BJ1 were cultured using conditions that are similar to their parental cells.

Each structure is given as a SMILES string. Where only a bound is given, the exact number is not on record here.

As usually defined, the IC50 is the point on the concentration scale where inhibition reaches its midpoint. The low end stands for inhibition by little substance, the high end for a need for much substance. Turning to `O=C1c2ccccc2C(=O)c2c(NC(=O)C3CC3)ccc(NC(=O)C3CC3)c21` [VI21, 1,4-Bis(cyclopropionamido)-9,10-anthracenedione], the IC50 in series [1], in series [2] and in series [3] was above 20 µM in each case. The “Relative SEAP activity (%)” value in series [4] (2.6 μM) worked out at 64 ± 9.5%; in series [4] (26 μM), 54 ± 8.8%; in series [4] (267 μM), 43 ± 8.3%; in series [5] (2.6 μM), 108 ± 4.9%; in series [5] (26 μM) it was 106 ± 7.3%; in series [5] (267 μM), 92 ± 5.9%. Further, the SEAP/vibility came out at 0.62 in series [4] (2.6 μM); 0.66 in series [4] (26 μM); 0.74 in series [4] (267 μM); 1.14 in series [5] (2.6 μM); 1.21 in series [5] (26 μM); 2.23 in series [5] (267 μM). Also, the “Relative MTT viability (%)” value is reported as 95 ± 4.2% in series [6] (2.6 μM); 88 ± 4.2% in series [6] (26 μM); 41 ± 4.6% in series [6] (267 μM); 103 ± 6.8% in series [7] (2.6 μM); 82 ± 5.9% in series [7] (26 μM); 58 ± 4.1% in series [7] (267 μM).
For `O=C(Nc1ccc(NC(=O)c2cc(F)c(F)cc2F)c2c1C(=O)c1ccccc1C2=O)c1cc(F)c(F)cc1F` [VI15, 1,4-Bis(2,4,5-trifluorobenzoylamido)-9,10-anthracenedione], the values for the IC50 in series [1], in series [2] and in series [3] were above 20 µM, above 20 µM and 3.35 µM, respectively. The “Relative SEAP activity (%)” value in series [4] (1.6 μM) was 117 ± 14.2%; in series [4] (16 μM), 114 ± 20.4%; in series [4] (161 μM), 115 ± 30.8%; in series [5] (1.6 μM) it was 109 ± 10.8%; in series [5] (16 μM) it was 118 ± 10.3%; in series [5] (161 μM) it was 104 ± 8.2%. Besides, the SEAP/vibility in series [4] (1.6 μM) was 1.12; in series [4] (16 μM), 1.29; in series [4] (161 μM), 1.44; in series [5] (1.6 μM), 1.20; in series [5] (16 μM), 1.45; in series [5] (161 μM), 1.73. In addition, the “Relative MTT viability (%)” value in series [6] (1.6 μM) is on record as 90 ± 6.6%; in series [6] (16 μM), 81 ± 1.9%; in series [6] (161 μM), 60 ± 5.0%; in series [7] (1.6 μM), 104 ± 4.5%; in series [7] (16 μM), 89 ± 5.0%; in series [7] (161 μM) it was 80 ± 3.8%.
Take `O=C(Nc1ccc(NC(=O)c2c(F)ccc(F)c2F)c2c1C(=O)c1ccccc1C2=O)c1c(F)ccc(F)c1F` [VI14, 1,4-Bis(2,3,6-trifluorobenzoylamido)-9,10-anthracenedione]: the IC50 in series [1], in series [2] and in series [3] was above 20 µM in each case. The “Relative SEAP activity (%)” value was determined as 35 ± 14.1% in series [4] (1.8 μM); 22 ± 24.4% in series [4] (18 μM); 31 ± 7.9% in series [4] (180 μM); 91 ± 5.2% in series [5] (1.8 μM); 97 ± 4.1% in series [5] (18 μM); 91 ± 3.3% in series [5] (180 μM). Moreover, the SEAP/vibility is 0.35 in series [4] (1.8 μM); 0.25 in series [4] (18 μM); 0.44 in series [4] (180 μM); 0.82 in series [5] (1.8 μM); 1.09 in series [5] (18 μM); 1.64 in series [5] (180 μM). For the same compound, the “Relative MTT viability (%)” value is 111 ± 2.9% in series [6] (1.8 μM); 89 ± 3.7% in series [6] (18 μM); 55 ± 3.3% in series [6] (180 μM); 102 ± 3.3% in series [7] (1.8 μM); 90 ± 6.0% in series [7] (18 μM); 70 ± 6.8% in series [7] (180 μM).
Turning to `O=C(Nc1ccc(NC(=O)c2ccccc2Cl)c2c1C(=O)c1ccccc1C2=O)c1ccccc1Cl` [VI2, 1,4-Bis(2-chlorobenzoylamido)-9,10-anthracenedione], the IC50 in series [1], in series [2] and in series [3] was above 20 µM throughout. In addition, the “Relative SEAP activity (%)” value is reported as 110 ± 20.1% in series [4] (1.9 μM); 96 ± 33.4% in series [4] (19 μM); 95 ± 36.6% in series [4] (194 μM); 108 ± 10.5% in series [5] (1.9 μM); 105 ± 7.7% in series [5] (19 μM); 100 ± 8.9% in series [5] (194 μM). Besides, the SEAP/vibility was 0.95 in series [4] (1.9 μM); 0.88 in series [4] (19 μM); 1.00 in series [4] (194 μM); 0.94 in series [5] (1.9 μM); 1.47 in series [5] (19 μM); 1.68 in series [5] (194 μM). Further, the “Relative MTT viability (%)” value in series [6] (1.9 μM) came to 114 ± 5.4%; in series [6] (19 μM), 72 ± 3.6%; in series [6] (194 μM) it was 60 ± 7.9%; in series [7] (1.9 μM), 116 ± 7.7%; in series [7] (19 μM), 109 ± 2.2%; in series [7] (194 μM), 95 ± 2.0%.
Regarding `Cc1cc(C(=O)Nc2ccc(NC(=O)c3cc(C)oc3C)c3c2C(=O)c2ccccc2C3=O)c(C)o1` [VI26, 1,4-Bis(2,5-dimethylfuran-3-carbonylamido)-9,10-anthracenedione], the IC50 in series [1], in series [2] and in series [3] was above 20 µM in each case. Also, the “Relative SEAP activity (%)” value in series [4] (2.0 μM) was 84 ± 13.3%; in series [4] (20 μM) it was 79 ± 14.7%; in series [4] (207 μM), 81 ± 16.1%; in series [5] (2.0 μM), 104 ± 10.8%; in series [5] (20 μM), 103 ± 10.0%; in series [5] (207 μM) it was 98 ± 10.5%. For the same compound, the SEAP/vibility in series [4] (2.0 μM) was 0.83; in series [4] (20 μM) it was 0.78; in series [4] (207 μM) it was 0.88; in series [5] (2.0 μM), 1.20; in series [5] (20 μM) it was 1.46; in series [5] (207 μM), 2.10. The “Relative MTT viability (%)” value in series [6] (2.0 μM) was determined as 87 ± 4.9%; in series [6] (20 μM), 71 ± 2.3%; in series [6] (207 μM) it was 47 ± 2.6%; in series [7] (2.0 μM), 101 ± 6.2%; in series [7] (20 μM), 101 ± 5.8%; in series [7] (207 μM), 93 ± 7.1%.
On to `O=C(CSc1ccccc1)Nc1ccc(NC(=O)CSc2ccccc2)c2c1C(=O)c1ccccc1C2=O` [VI28, 1,4-Bis(phenylthioacetamido)-9,10-anthracenedione], for which the IC50 in series [1], in series [2] and in series [3] was above 20 µM throughout. The “Relative SEAP activity (%)” value is given as 14 ± 14.7% in series [4] (1.8 μM); 23 ± 9.5% in series [4] (18 μM); 7 ± 9.6% in series [4] (185 μM); 93 ± 3.2% in series [5] (1.8 μM); 92 ± 3.5% in series [5] (18 μM); 80 ± 4.0% in series [5] (185 μM). Moreover, the SEAP/vibility came out at 0.12 in series [4] (1.8 μM); 0.21 in series [4] (18 μM); 0.12 in series [4] (185 μM); 0.89 in series [5] (1.8 μM); 0.96 in series [5] (18 μM); 1.35 in series [5] (185 μM). The “Relative MTT viability (%)” value in series [6] (1.8 μM) is recorded as 104 ± 5.6%; in series [6] (18 μM), 96 ± 4.3%; in series [6] (185 μM), 59 ± 3.8%; in series [7] (1.8 μM) it was 115 ± 4.8%; in series [7] (18 μM), 105 ± 6.7%; in series [7] (185 μM) it was 60 ± 2.3%.

Values taken from US20050009924A1 (priority 2003, published 2005).
